Source: article PMC7997411, “Discovery and Optimization of Selective Inhibitors of Meprin α (Part II)” (Pharmaceuticals, 2021)
“And” between values parts separate entries of the source, which are not always exact repeats. Equal values may be shown once.

Experiments:
Format in all cases: biochemical
human meprin β = target: T1, human meprin β (Homo sapiens, UniProt Q16820); assay: Meprin β assay in a 384-well plate (fluorogenic substrate Mca-EDEDED-K(Dnp)); conditions: for IC50: triplicate, ± SD
T1 construct: His-tag; made in house; host or cells: BTI-TN-5B1-4 insect cells (baculovirus, amplified in Sf9)
T1 sequence (Q16820 62-701): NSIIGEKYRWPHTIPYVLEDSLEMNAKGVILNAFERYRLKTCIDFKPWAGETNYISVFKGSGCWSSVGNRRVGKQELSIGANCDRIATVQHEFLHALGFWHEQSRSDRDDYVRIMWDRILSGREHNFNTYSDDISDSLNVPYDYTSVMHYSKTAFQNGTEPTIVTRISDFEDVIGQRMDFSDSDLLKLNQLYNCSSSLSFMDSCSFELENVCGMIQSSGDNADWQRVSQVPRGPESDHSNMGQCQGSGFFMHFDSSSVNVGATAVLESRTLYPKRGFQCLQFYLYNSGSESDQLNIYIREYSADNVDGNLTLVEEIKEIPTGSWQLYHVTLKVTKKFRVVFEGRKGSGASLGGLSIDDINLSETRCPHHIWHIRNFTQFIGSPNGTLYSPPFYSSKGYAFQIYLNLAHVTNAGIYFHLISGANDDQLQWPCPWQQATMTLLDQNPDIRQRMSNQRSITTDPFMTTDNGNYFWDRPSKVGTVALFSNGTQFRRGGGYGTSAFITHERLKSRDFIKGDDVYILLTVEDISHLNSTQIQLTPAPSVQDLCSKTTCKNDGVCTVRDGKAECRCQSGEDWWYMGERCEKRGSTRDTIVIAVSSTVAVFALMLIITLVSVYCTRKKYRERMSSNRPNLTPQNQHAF
Description: Recombinant human meprin α and meprin β were expressed using the Bac-to-Bac expression system (Gibco Life Technologies, Paisley, UK) as described before. Media and supplements were obtained from Gibco Life Technologies. Recombinant Baculoviruses were amplified in adherently growing Spodoptera frugiperda (Sf)9 insect cells at 27 °C in Grace’s insect medium supplemented with 10% fetal bovine serum, 50 units/mL penicillin, and 50 μg/mL streptomycin. Protein expression was performed in 500 mL suspension cultures of BTI-TN-5B1-4 insect cells growing in Express Five SFM supplemented with 4 mM glutamine, 50 units/mL penicillin, and 50 μg/mL streptomycin in Fernbach-flasks using a Multitron orbital shaker (INFORS AG, Bottmingen, Switzerland). Cells were infected at a density of 2 × 10^6 cells/mL with an amplified viral stock at a MOI of ~10. […] Meprins were activated by trypsin, which was removed afterwards by affinity chromatography using a column containing immobilized chicken ovomucoid, a trypsin inhibitor.
Both assays followed the same general protocol. […] After 30 min incubation at RT, the reactions were started by addition of 5 µL of 2× solutions of substrates (20 µM, meprin α Mca-YVADAPK-K(Dnp), and for meprin β Mca-EDEDED-K(Dnp)).

MMP13 = target: T2, MMP13 (Homo sapiens, UniProt P45452); assay: MMP assay (fluorogenic substrate ES010)
T2 construct: purchased R&D Systems 511-MM
Description: (§1) MMP-1, MMP-2, MMP-8, MMP-9, MMP-10, MMP-13, MMP-14, ADAM10, ADAM17 and Mca-KPLGL-Dpa-AR-NH2 fluorogenic peptide substrate were purchased from R&D Systems (cat # 901-MP, 902-MP, 908-MP, 911-MP, 910-MP, 511-MM, 918-MP, 936-AD, 930-ADB, and ES010, respectively). All common chemicals were purchased from Sigma. NFF449 was purchased from Tocris (cat# 1391) and actinonin was from Sigma-Aldrich, St. Louis, MO, USA (cat# 01809).
(§2) All assays followed the same general protocol. 5 µL of 2× enzyme solution (5 nM) in assay buffer (50 mM Tricine, 50 mM NaCl, 10 mM CaCl2, 0.05% Brij-35, pH 7.5) were added to solid-bottom black 384 plates (Nunc, cat# 264705). Next, test compounds and pharmacological controls were added to corresponding wells using a 384-pin tool device (V&P Scientific, San Diego). After 30 min incubation at RT, the reactions were started by addition of 5 µL of 2× solutions of MMP substrate (R&D Systems cat#: ES010, 20 µM). Reactions were incubated at RT for 1 h, after which the fluorescence was measured using the Synergy H4 multimode microplate reader (Biotek Instruments) (λexcitation = 324 nm, λemission = 390 nm). All compounds were tested in 10-point, 1:3 serial dilutions dose-response format starting with highest concentration of 100 µM. IC50 values were determined using non-linear regression analysis using the GraphPad Prism 8.0 suite of programs.

MMP14 = target: T3, MMP14 (Homo sapiens, UniProt P50281); assay: MMP assay (fluorogenic substrate ES010)
T3 construct: purchased R&D Systems 918-MP
Description: as §1, §2

MMP2 = target: T4, MMP2 (Homo sapiens, UniProt P08253); assay: MMP assay (fluorogenic substrate ES010)
T4 construct: purchased R&D Systems 902-MP
T4 sequence (P08253 110-660): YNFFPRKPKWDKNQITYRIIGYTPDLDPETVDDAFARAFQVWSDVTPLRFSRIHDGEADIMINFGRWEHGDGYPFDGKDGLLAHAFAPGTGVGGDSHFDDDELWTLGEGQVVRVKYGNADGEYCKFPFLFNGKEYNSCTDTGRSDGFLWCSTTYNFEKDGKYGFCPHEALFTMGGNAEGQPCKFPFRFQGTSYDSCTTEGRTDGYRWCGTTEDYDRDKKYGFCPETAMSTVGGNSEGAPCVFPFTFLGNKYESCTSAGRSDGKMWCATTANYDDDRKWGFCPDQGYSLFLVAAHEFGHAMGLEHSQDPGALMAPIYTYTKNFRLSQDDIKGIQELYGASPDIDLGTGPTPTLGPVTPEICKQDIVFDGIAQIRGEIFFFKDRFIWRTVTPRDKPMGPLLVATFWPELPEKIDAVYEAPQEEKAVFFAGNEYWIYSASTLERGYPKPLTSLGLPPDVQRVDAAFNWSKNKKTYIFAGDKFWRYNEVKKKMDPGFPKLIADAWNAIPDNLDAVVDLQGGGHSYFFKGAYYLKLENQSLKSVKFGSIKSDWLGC
Description: as §1, §2

MMP8 = target: T5, MMP8 (Homo sapiens, UniProt P22894); assay: MMP assay (fluorogenic substrate ES010)
T5 construct: purchased R&D Systems 908-MP
Description: as §1, §2

MMP9 = target: T6, MMP9 (Homo sapiens, UniProt P14780); assay: MMP assay (fluorogenic substrate ES010)
T6 construct: purchased R&D Systems 911-MP
Description: as §1, §2

T5 sequence (P22894 101-467): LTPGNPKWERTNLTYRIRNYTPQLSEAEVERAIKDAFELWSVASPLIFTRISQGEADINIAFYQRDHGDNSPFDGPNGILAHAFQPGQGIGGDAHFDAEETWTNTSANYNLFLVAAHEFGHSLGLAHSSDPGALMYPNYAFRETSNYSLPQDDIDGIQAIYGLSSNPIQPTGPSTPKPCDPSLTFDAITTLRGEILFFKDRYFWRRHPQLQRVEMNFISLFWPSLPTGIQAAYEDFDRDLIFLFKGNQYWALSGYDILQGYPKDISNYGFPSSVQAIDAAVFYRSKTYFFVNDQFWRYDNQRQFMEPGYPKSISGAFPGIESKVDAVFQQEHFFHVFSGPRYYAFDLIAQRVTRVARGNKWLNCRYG
T6 sequence (P14780 94-707): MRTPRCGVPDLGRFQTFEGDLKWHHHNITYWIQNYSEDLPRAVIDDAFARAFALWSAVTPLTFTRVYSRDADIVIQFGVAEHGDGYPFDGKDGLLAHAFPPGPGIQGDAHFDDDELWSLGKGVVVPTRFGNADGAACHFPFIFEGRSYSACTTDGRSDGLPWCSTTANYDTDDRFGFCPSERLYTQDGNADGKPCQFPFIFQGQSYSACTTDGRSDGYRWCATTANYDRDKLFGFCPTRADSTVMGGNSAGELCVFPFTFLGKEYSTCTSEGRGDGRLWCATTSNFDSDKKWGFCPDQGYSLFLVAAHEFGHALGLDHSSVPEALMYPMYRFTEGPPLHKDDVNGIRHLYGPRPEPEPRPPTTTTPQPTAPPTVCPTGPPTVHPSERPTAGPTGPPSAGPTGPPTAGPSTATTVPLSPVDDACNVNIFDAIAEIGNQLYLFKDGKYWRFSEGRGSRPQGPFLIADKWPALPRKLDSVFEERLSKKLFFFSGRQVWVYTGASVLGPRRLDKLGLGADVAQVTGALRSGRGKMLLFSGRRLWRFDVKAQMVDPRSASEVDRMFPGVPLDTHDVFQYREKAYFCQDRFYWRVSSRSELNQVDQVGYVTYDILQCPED

IC50 (human meprin β)	IC50 (MMP13)	IC50 (MMP14)	IC50 (MMP2)	IC50 (MMP8)	IC50 (MMP9)	extent of meprin β inhibition (in words) (human meprin β; scale-up batch, higher doses tested, Figure 4A)	SMILES
4.8 ± 0.5 µM	0.1 µM	> 1000 µM	0.09 µM	0.19 µM	0.1 ± 0.01 µM	–	CCCCC[C@H](CC(=O)NO)C(=O)N[C@H](C(=O)N1CCC[C@H]1CO)C(C)C [Actinonin, actinonin, reference compound]
≥ 70 µM and 70 µM	> 100 µM	> 100 µM	> 100 µM	> 100 µM	> 100 µM	only partial meprin β inhibition	COc1cc(OC)nc(SCc2nnc(SCC(=O)NO)n2-c2ccc(N(C)C)cc2)n1 [SR24717]
